How the values were obtained:
[1] = Fixed-field relaxometric measurements in human serum and in water; assay type: physicochemical; settings: for r1p / r2p: 1 T, 37° C.
Method: Fixed-field relaxometric measurements were performed using the [Fe(DFX)2Meg3] complex obtained as per Example 1, comparing it with two prior art complexes, Gd-DTPA and Fe-DTPA.

[2] = tested on: mice inoculated with tumour cells (ISA); assay: In vivo MRI contrast enhancement (En %); settings: 0.1 mmol/Kg
Method: The increase in contrast (En %) generated by the administration of the complex according to the present invention Fe(DFX)2, obtained as per Example 1 (0.1 mmol/Kg), was measured and compared with the one induced by the Gd-DTPA complex (known by the trade name of Magnevist) at the same dose and under the same experimental conditions. The measurements were performed (in vivo), under a fixed magnetic field of 3T and 7T, in mice inoculated with tumour cells (ISA). The images were acquired when the size of the subcutaneous tumour had reached about 1-2 cm (i.e. about 15-20 days after inoculation).

For `CNC[C@H](O)[C@@H](O)[C@H](O)[C@H](O)CO.CNC[C@H](O)[C@@H](O)[C@H](O)[C@H](O)CO.O=C([O-])CN(CCN(CC(=O)[O-])CC(=O)O)CCN(CC(=O)[O-])CC(=O)O.[Gd+3]` [Gd-DTPA, gadopentetic acid], the r1p ([1]; Human serum) was 4.1 (1 T, 37° C.), the r2p ([1]; Human serum) was 4.8 (1 T, 37° C.) and the “relaxivity in human serum” value ([1]; human serum, 37° C. and 1T) was 3.4 mM⁻¹ s⁻¹. The r1p ([1]; water) was 3.4 (1 T, 37° C.), the r2p ([1]; water) was 3.9 (1 T, 37° C.) and the “renal excretion (kidneys and bladder contrast) compared with Fe(DFX)2” value [2] was “more rapid renal excretion”.

Reference: patent US12715891B2, “Iron complexes and salts thereof as contrast agents for MRI” (BRACCO IMAGING S.P.A., priority 2020, dated 2026)
